According to patent US9956319B2, “Compositions useful as antibiofilm or antimicrobial agents and methods using same” (BAYLOR COLLEGE OF MEDICINE, priority 2012, dated 2018):

Tested on: Pseudomonas aeruginosa
Test: Bacterial colony counts extracted from impregnated central venous catheters after exposure to bacteria
Type: cell-based
Conditions: catheter impregnated with 100 mg/ml, 10^5 cfu/ml suspension in TSB, 37° C., 24 hours
Procedure: To evaluate the anticolonization/antimicrobial activity of central venous catheters treated with lipoamide, segments of 7 French triple lumen polyurethane central venous catheters were impregnated with lipoamide using the same patented method described in Example 1 (U.S. Pat. No. 6,589,591) with 100 mg/ml (final solution volume) of the agent. After the impregnation process and drying, Catheter segments were then placed in the impregnating solution at 55° C. with agitation for 1 hour in the dark. Catheter segments were then removed from the solution and dried under a fume hood overnight in the dark. Catheter segments were rinsed with deionized water the next day and let dry for another 18 hours in the dark. After the impregnation process and drying, one-centimeter segments of impregnated catheters were individually placed in 1 ml of 10^5 cfu/ml suspensions of MRSE, MRSA, or P. aeruginosa in trypticase soy broth (TSB) at 37° C. for 24 hours. One-centimeter segments of non-impregnated catheters were also incubated individually in each bacterial suspension at 37° C. for 24 hours as controls. […]
Aliquots of each suspension and subsequent dilutions were cultured quantitatively.

NC(=O)CCCCC1CCSS1 (stereo not shown) [Lipoamide, lipoamide]
Mean bacterial colony counts extracted from catheter: 210000
